Data from US11897867B2, “6-phenyl-4,5-dihydropyridazin-3(2H)-one derivatives as PDE3A and PDE3B inhibitors for treating cancer” (Bayer Aktiengesellschaft, priority 2017, dated 2024).

What was measured:
SK-MEL-3 (melanoma) = test: Cell proliferation measurement (Cell Titer Glo), SK-MEL-3; type: cell-based; conditions: Homo sapiens, SK-MEL3, SK-MEL-3 cells, 72 h treatment, read-out: Anti-proliferation IC50 SK-MEL-3 (melanoma)
Procedure: (§1) The antiproliferative activity of the compounds of the general formula (I) was examined in vitro in human cancer cells. For this purpose, 1000 cells (or 500 HeLa cells) were plated in 384-well plates with appropriate growth medium and incubated at 37° C. overnight. After 24 h, the cells on the test plate were treated with the compounds of the general formula (I) as and incubated at 37° C. for 72 h. The compounds were added to the cells by means of an HP D300 digital dispenser in a 10 (or more)-step dilution series. As control, the cells were treated with vehicle (DMSO at 0.3% final concentration). After 72 h, the cells were treated with 20 μl/well of 50% CTG solution in PBS (Promega Cell Titer Glo (catalogue #G755B and G756B)) and incubated at room temperature for 10 min, and luminescence was measured by means of a VICTOR V (Perkin Elmer), in order to determine cell viability at the end of treatment. The percentage effect on cell growth and the IC50 derived therefrom were determined for each test substance using the values from untreated wells (=percent viability). The IC50 values were calculated using a 4-parameter fit.

[1] = test system: HeLa cells (cervical cancer); test: Cell proliferation measurement (Cell Titer Glo), HeLa; type: cell-based; conditions: Homo sapiens, 72 h treatment, read-out: Anti-proliferation IC50 HeLa (Cervical cancer)
Procedure: as §1

human full length PDE3A = biological target: T1, human full length PDE3A (Homo sapiens, UniProt Q14432); test: PDE3A enzyme inhibition (3H-cAMP Scintillation Proximity Assay); type: biochemical; conditions: PDE3A cell extract from Sf9 cells, 60 min room temperature; read-out: Target IC50 PDE3A IC50
T1 construct: Sf9 cells overexpressing human full length PDE3A; purchased SB Drug Discovery, UK; host or cells: Sf9 cells (cell extract)
T1 sequence (Q14432 whole entry): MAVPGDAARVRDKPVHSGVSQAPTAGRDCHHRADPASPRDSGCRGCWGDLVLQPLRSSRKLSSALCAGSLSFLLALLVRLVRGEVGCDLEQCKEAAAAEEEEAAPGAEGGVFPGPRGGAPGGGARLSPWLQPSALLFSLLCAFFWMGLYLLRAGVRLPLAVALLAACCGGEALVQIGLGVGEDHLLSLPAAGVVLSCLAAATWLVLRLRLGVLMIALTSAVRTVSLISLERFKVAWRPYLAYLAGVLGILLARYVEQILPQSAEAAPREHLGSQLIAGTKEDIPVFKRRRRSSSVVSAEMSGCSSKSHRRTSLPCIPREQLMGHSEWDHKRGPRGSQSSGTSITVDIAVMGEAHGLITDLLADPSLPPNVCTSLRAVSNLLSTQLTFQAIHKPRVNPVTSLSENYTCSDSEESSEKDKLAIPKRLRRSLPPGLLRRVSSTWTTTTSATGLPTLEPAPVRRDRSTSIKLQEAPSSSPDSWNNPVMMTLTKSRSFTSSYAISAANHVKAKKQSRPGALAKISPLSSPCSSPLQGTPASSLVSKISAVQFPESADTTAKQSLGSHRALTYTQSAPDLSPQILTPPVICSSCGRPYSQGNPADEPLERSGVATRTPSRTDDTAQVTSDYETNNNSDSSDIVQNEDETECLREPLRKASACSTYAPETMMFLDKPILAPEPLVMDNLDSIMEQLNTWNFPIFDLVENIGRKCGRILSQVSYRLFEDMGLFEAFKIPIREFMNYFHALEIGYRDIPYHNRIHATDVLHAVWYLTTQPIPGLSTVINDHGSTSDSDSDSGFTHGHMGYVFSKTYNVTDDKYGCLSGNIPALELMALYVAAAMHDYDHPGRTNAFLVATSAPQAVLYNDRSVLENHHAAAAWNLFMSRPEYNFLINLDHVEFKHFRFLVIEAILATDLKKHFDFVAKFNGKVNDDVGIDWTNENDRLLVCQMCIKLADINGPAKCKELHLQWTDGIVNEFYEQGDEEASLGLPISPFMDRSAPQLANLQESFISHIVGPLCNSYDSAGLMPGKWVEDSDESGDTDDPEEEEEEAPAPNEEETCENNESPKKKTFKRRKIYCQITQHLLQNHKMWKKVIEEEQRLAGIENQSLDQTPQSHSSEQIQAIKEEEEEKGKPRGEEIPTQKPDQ
Procedure: (§2) The commercially available 3H-cAMP Scintillation Proximity Assay (SPA, Perkin Elmer) system was used for enzyme inhibition studies. For the determination of the in vitro effect of test substances on the PDE3A reactions 2 μl of the respective test compound solution in DMSO (serial dilutions) were is placed in wells of microtiter plates (Isoplate-96/200W; Perkin Elmer). 50 μl of a dilution of PDE3A cell extract from Sf9 cells overexpressing human full length PDE3A (SB Drug Discovery, UK) in buffer A (50 mM Tris/HCl pH 7.5, 8.3 mM MgCl2, 1.7 mM EDTA, 0.2% BSA) was added. The dilution of the PDE3A cell extract was chosen such that the reaction kinetics was linear and less than 70% of the substrate was consumed (typical dilution 1:5000). The reaction was started by addition of 50 μl (0.025 μCi) of 1:2000 in buffer A w/o BSA diluted substrate [8-3H] adenosine 3′,5′-cyclic phosphate (1 μCi/μl; Perkin Elmer). After incubation at room temperature for 60 min, the reaction was stopped by addition of 25 μl of a suspension containing 18 mg/ml yttrium scintillation proximity beads (Perkin Elmer) in water. The microtiter plates were sealed and measured in a Microbeta scintillation counter (PerkinElmer Wallac). IC50 values were determined from sigmoidal curves by plotting percentage PDE3A activity vs log compound concentration.

human full length PDE3B = biological target: T2, human full length PDE3B (Homo sapiens, UniProt Q13370); test: PDE3B enzyme inhibition (3H-cAMP Scintillation Proximity Assay); type: biochemical; conditions: PDE3B cell extract from Sf9 cells, 60 min room temperature; read-out: Target IC50 PDE3B IC50
T2 construct: Sf9 cells overexpressing human full length PDE3B; purchased SB Drug Discovery, UK; host or cells: Sf9 cells (cell extract)
T2 sequence (Q13370 whole entry): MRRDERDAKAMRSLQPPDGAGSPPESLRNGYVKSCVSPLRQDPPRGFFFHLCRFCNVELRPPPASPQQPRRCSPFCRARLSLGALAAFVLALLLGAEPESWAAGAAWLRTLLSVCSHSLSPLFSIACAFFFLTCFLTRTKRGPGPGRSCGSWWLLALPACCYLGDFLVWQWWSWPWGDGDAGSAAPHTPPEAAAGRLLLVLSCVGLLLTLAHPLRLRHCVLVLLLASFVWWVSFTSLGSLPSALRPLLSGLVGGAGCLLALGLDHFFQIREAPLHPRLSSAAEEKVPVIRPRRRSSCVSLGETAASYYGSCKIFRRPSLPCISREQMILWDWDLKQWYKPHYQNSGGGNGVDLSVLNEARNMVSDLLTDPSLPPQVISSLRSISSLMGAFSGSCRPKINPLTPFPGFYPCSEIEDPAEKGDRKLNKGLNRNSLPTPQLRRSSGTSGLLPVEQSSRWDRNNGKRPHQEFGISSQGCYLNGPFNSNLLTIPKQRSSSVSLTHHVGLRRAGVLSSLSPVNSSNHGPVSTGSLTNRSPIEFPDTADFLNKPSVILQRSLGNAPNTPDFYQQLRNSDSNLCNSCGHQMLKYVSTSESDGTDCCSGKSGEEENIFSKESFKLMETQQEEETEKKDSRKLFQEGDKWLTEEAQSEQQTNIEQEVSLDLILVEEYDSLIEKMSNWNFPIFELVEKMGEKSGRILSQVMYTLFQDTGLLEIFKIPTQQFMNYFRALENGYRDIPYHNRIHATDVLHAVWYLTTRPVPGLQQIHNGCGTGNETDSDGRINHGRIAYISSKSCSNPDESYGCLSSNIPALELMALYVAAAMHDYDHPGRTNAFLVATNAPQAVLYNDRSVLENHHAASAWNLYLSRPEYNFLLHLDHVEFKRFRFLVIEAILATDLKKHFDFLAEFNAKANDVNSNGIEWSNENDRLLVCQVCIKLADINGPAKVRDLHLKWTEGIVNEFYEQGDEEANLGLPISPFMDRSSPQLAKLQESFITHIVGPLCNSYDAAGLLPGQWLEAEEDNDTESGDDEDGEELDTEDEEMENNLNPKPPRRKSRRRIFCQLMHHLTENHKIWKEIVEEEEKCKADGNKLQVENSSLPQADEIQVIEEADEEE
Procedure: as §2, with “PDE3B” for “PDE3A”, “were” for “were is”, “1:6000).” for “1:5000).”

Compound	IC50 (SK-MEL-3 (melanoma)) [nM]	IC50 [1] [nM]	IC50 (human full length PDE3A) [nM]	IC50 (human full length PDE3B) [nM]
O=C1CCC(c2ccc(-c3cccc(F)c3F)c(F)c2)=NN1 [Example 53, 6-(2,2′,3′-trifluoro[1,1′-biphenyl]-4-yl)-4,5-dihydropyridazin-3(2H)-one]	6.78	3.82	68	34
Cc1ccc(-c2ccc(C3=NNC(=O)CC3)cc2F)c(C)c1 [Example 56, 6-(2-fluoro-2′,4′-dimethyl[1,1′-biphenyl]-4-yl)-4,5-dihydropyridazin-3(2H)-one]	7.24	4.34	110	62
Cc1cc(C2=NNC(=O)CC2)ccc1-c1cccc(F)c1F [Example 104, 6-(2′,3′-difluoro-2-methyl[1,1′-biphenyl]-4-yl)-4,5-dihydropyridazin-3(2H)-one]	70.8	13.4	120	120
O=C1CCC(c2ccc(-c3ccccc3O)c(F)c2)=NN1 [Example 50, 6-(2-fluoro-2′-hydroxy[1,1′-biphenyl]-4-yl)-4,5-dihydropyridazin-3(2H)-one]	4.03	2.83	130	130
O=C1CCC(c2ccc(C3=CCCCC3)c(F)c2)=NN1 [Example 79, 6-(2-fluoro-2′,3′,4′,5′-tetrahydro[1,1′-biphenyl]-4-yl)-4,5-dihydropyridazin-3(2H)-one]	6.15	4.47	170	170
CCNc1ccc(C2=NNC(=O)CC2)cc1C(F)(F)F [Example 18, 6-[4-(Ethylamino)-3-(trifluoromethyl)phenyl]-4,5-dihydropyridazin-3(2H)-one]	10.5	5.39	66	73
COc1cc(-c2ccc(C3=NNC(=O)CC3)cc2F)ccn1 [Example 32, 6-[3-fluoro-4-(2-methoxypyridin-4-yl)phenyl]-4,5-dihydropyridazin-3(2H)-one]	64.7	59.9	64	36
O=C1CCC(c2ccc(-c3cccc4[nH]ccc34)c(F)c2)=NN1 [Example 75, 6-[3-fluoro-4-(1H-indol-4-yl)phenyl]-4,5-dihydropyridazin-3(2H)-one]	43.5	27.6	100	120
Cc1cccc(-c2ccc(C3=NNC(=O)CC3)cc2F)c1C [Example 85, 6-(2-fluoro-2′,3′-dimethyl[1,1′-biphenyl]-4-yl)-4,5-dihydropyridazin-3(2H)-one]	40.4	18.9	240	150
COc1cccc(-c2ccc(C3=NNC(=O)CC3)cc2F)c1OC [Example 78, 6-(2-fluoro-2′,3′-dimethoxy[1,1′-biphenyl]-4-yl)-4,5-dihydropyridazin-3(2H)-one]	69	53.3	320	600
Cc1cccc(-c2ccc(C3=NNC(=O)CC3)cc2C)c1 [Example 120, 6-(2,3′-dimethyl[1,1′-biphenyl]-4-yl)-4,5-dihydropyridazin-3(2H)-one]	> 100	45.9	200	180
Cc1cc(F)ccc1-c1ccc(C2=NNC(=O)CC2)cc1 [Example 26, 6-(4′-Fluoro-2′-methylbiphenyl-4-yl)-4,5-dihydropyridazin-3(2H)-one]	3.6	2.02	93	90
Nc1cc(-c2ccc(C3=NNC(=O)CC3)cc2F)ccc1Cl [Example 9, 6-(3′-Amino-4′-chloro-2-fluorobiphenyl-4-yl)-4,5-dihydropyridazin-3(2H)-one]	2.12	1.55	90	35
COc1cccc(-c2ccc(C3=NNC(=O)CC3)cc2C)c1 [Example 113, 6-(3′-methoxy-2-methyl[1,1′-biphenyl]-4-yl)-4,5-dihydropyridazin-3(2H)-one]	> 100	33	88	91
Nc1ccccc1-c1ccc(C2=NNC(=O)CC2)cc1F [Example 66, 6-(2′-amino-2-fluoro[1,1′-biphenyl]-4-yl)-4,5-dihydropyridazin-3(2H)-one]	> 100	> 100	330	290
Cc1cc(C2=NNC(=O)CC2)ccc1-c1ccc(N)cc1 [Example 115, 6-(4′-amino-2-methyl[1,1′-biphenyl]-4-yl)-4,5-dihydropyridazin-3(2H)-one]	37.3	7.87	47	80
Cc1ccc(-c2ccc(C3=NNC(=O)CC3)cc2F)cc1F [Example 58, 6-(2,3′-difluoro-4′-methyl[1,1′-biphenyl]-4-yl)-4,5-dihydropyridazin-3(2H)-one]	7.7	4.69	250	83
CCOc1ccccc1-c1ccc(C2=NNC(=O)CC2)cc1F [Example 52, 6-(2′-ethoxy-2-fluoro[1,1′-biphenyl]-4-yl)-4,5-dihydropyridazin-3(2H)-one]	> 100	66.8	95	65
Cc1ccc(-c2ccc(C3=NNC(=O)CC3)cc2F)cc1 [Example 87, 6-(2-fluoro-4′-methyl[1,1′-biphenyl]-4-yl)-4,5-dihydropyridazin-3(2H)-one]	8.15	3.72	385	215
O=C1CCC(c2ccc(-c3ccc(F)cc3F)c(F)c2)=NN1 [Example 55, 6-(2,2′,4′-trifluoro[1,1′-biphenyl]-4-yl)-4,5-dihydropyridazin-3(2H)-one]	3.39	1.96	50	62
Cc1ncc(-c2ccc(C3=NNC(=O)CC3)cc2C)cn1 [Example 92, 6-[3-methyl-4-(2-methylpyrimidin-5-yl)phenyl]-4,5-dihydropyridazin-3(2H)-one]	> 100	42.3	61	88
O=C1CCC(c2cc(F)c(N3CCCCC3)c(F)c2)=NN1 [Example 16, 6-[3,5-Difluoro-4-(piperidin-1-yl)phenyl]-4,5-dihydropyridazin-3(2H)-one]	9.8	4.86	405	128
Cc1ccc(-c2ccc(C3=NNC(=O)CC3)cc2C)cc1F [Example 107, 6-(3′-fluoro-2,4′-dimethyl[1,1′-biphenyl]-4-yl)-4,5-dihydropyridazin-3(2H)-one]	52.4	9.26	270	190
O=C1CCC(c2ccc(N3CC(O)C3)c(C(F)(F)F)c2)=NN1 [Example 24, 6-[4-(3-Hydroxyazetidin-1-yl)-3-(trifluoromethyl)phenyl]-4,5-dihydropyridazin-3(2H)-one]	15	9.97	350	300
